Measurements reported in patent US11377425B1, “Small molecule modulators of IL-17” (LEO Pharma A/S, priority 2018, dated 2022).
pEC50: −log10 of the molar value.

What follows are molecules tested against T1, human IL-17AA (Homo sapiens, UniProt Q16552) (assay: IL-8 release assay in human epithelial keratinocytes adult (HEKa)). Details: HEKa cells, 3 ng/mL HEK-human IL-17AA + 10 ng/mL human TNFalpha; read-out: Rel EC50 IL-8 release assay.
T1 construct: host or cells: HEK (human embryonic kidney) cells
T1 sequence (Q16552 24-155): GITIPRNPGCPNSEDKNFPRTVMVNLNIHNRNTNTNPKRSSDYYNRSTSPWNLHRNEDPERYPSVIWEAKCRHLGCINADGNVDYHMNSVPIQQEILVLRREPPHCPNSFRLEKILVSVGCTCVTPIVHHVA
Assay type: cell-based
In short: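 IL-8 release, quantified by HTRF and normalized to controls, reports IL-17 signaling in HEKa cells treated with compound plus final 3 ng/mL IL-17AA (HEK-derived) and 10 ng/mL TNF-alpha for 68-72 h; TNF-alpha-only wells set 100% inhibition. Four-parameter logistic fits (r^2>0.9) give relative IC50 and Emax; PrestoBlue flags cytotoxicity.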
Molecule `Cc1n[nH]c(C)c1-c1ccc(NC(=O)C(NC(=O)c2ccnn2C)C(c2ccccc2)C2CC2)cc1` (single isomer, unassigned) [Example 302, N-[1-[cyclopropyl(phenyl)methyl]-2-[4-(3,5-dimethyl-1H-pyrazol-4-yl)anilino]-2-oxo-ethyl]-2-methyl-pyrazole-3-carboxamide] has a pEC50 of less than 6.00.
For `Cc1n[nH]c(C)c1-c1ccc(NC(=O)C(NC(=O)c2ccnn2C)C(c2ccccc2)C2CC2)cc1` (single isomer, unassigned) [Example 303, N-[1-[cyclopropyl(phenyl)methyl]-2-[4-(3,5-dimethyl-1H-pyrazol-4-yl)anilino]-2-oxo-ethyl]-2-methyl-pyrazole-3-carboxamide], the pEC50 was 6.00 to 7.00.
Molecule `Cc1n[nH]c(C)c1-c1ccc(NC(=O)C(NC(=O)c2ccnn2C)C(c2ccccc2)C2CC2)cc1` (single isomer, unassigned) [Example 304, N-[1-[cyclopropyl(phenyl)methyl]-2-[4-(3,5-dimethyl-1H-pyrazol-4-yl)anilino]-2-oxo-ethyl]-2-methyl-pyrazole-3-carboxamide] has a pEC50 of less than 6.00.
Molecule `Cn1cncc1-c1ccc(NC(=O)C(NC(=O)OC(C)(C)C)C(c2ccccc2)C2CCC2)cc1` (single isomer, unassigned) [Example 310, tert-butyl N-[1-[cyclobutyl(phenyl)methyl]-2-[4-(3-methylimidazol-4-yl)anilino]-2-oxo-ethyl]carbamate] has a pEC50 of less than 6.00.
`Cn1cncc1-c1ccc(NC(=O)C(NC(=O)OC(C)(C)C)C(c2ccccc2)C2CCC2)cc1` (single isomer, unassigned) [Example 311, tert-butyl N-[1-[cyclobutyl(phenyl)methyl]-2-[4-(3-methylimidazol-4-yl)anilino]-2-oxo-ethyl]carbamate] showed a pEC50 of less than 6.00.
`Cn1cncc1-c1ccc(NC(=O)[C@@H](NC(=O)OC(C)(C)C)C(C2CCCCC2)C2CCCC2)cc1` (single isomer, unassigned) [Example 312] was tested, and the pEC50 was less than 6.00.
`Cn1cncc1-c1ccc(NC(=O)[C@@H](NC(=O)OC(C)(C)C)C(C2CCCCC2)C2CCCC2)cc1` (single isomer, unassigned) [Example 313] was tested, and the pEC50 was less than 6.00.
`Cc1ncn(C)c1-c1ccc(NC(=O)C(NC(=O)c2ccnn2C)C2CCC(F)(F)CC2)cc1` (single isomer, unassigned) [Example 333, N-[1-(4,4-difluorocyclohexyl)-2-[4-(3,5-dimethylimidazol-4-yl)anilino]-2-oxo-ethyl]-2-methyl-pyrazole-3-carboxamide] gave a pEC50 of less than 6.00.
With `Cc1ncn(C)c1-c1ccc(NC(=O)C(NC(=O)c2ccnn2C)C2CCC(F)(F)CC2)cc1` (single isomer, unassigned) [Example 334, N-[1-(4,4-difluorocyclohexyl)-2-[4-(3,5-dimethylimidazol-4-yl)anilino]-2-oxo-ethyl]-2-methyl-pyrazole-3-carboxamide] the pEC50 was less than 6.00.
With `Cn1cncc1-c1ccc(NC(=O)[C@@H](NC(=O)c2ccnn2C)C(C2CCCCC2)C2CCCC2)cc1` (single isomer, unassigned) [Example 339A] the pEC50 was 6.00 to 7.00.
Molecule `Cn1cncc1-c1ccc(NC(=O)[C@@H](NC(=O)c2ccnn2C)C(C2CCCCC2)C2CCCC2)cc1` (single isomer, unassigned) [Example 339B] has a pEC50 of 6.00 to 7.00.
For `Cn1cncc1-c1ccc(NC(=O)C(NC(=O)c2ccnn2C)C(c2cccc(Cl)c2)c2cccc(Cl)c2)cc1` (single isomer, unassigned) [Example 373A, N-(1,1-Bis(3-chlorophenyl)-3-((4-(1-methyl-1H-imidazol-5-yl)phenyl)amino)-3-oxopropan-2-yl)-1-methyl-1H-pyrazole-5-carboxamide], the pEC50 was 6.00 to 7.00.
For `Cn1cncc1-c1ccc(NC(=O)C(NC(=O)c2ccnn2C)C(c2cccc(Cl)c2)c2cccc(Cl)c2)cc1` (single isomer, unassigned) [Example 373B, N-(1,1-Bis(3-chlorophenyl)-3-((4-(1-methyl-1H-imidazol-5-yl)phenyl)amino)-3-oxopropan-2-yl)-1-methyl-1H-pyrazole-5-carboxamide], the pEC50 was less than 6.00.
